Tested on: mushroom tyrosinase
Assay: Tyrosinase inhibition screening (L-DOPA oxidation, absorbance at 470 nm)
Format: biochemical
Details: Concentration 0.1%; single compounds
Source text: The tyrosinase inhibition may be used to determine the tyrosinase inhibition ability of the compounds. The test comprises adding the test compound to a solution of L-dihydroxyphenylalanine (L-(DOPA)) and mushroom tyrosinase. L-(DOPA) is converted to […] by the mushroom tyrosinase, causing a brown colour to form. Inhibition of this reaction prevents the brown colour formation. The lighter the colour at the end of the reaction, the stronger is the inhibitory effect of the active. Absorbance data may be collected using a plate reacted set up to have a kinetic read every 1 minute for 30 minutes, where absorbance is read at 470 nm.

Compound | Tyrosinase Inhibition (%)
O=C(O)C(O)c1ccccc1 (stereo not shown) [C, Mandelic acid] | 80.279%
Feruloyl oligopeptide-33 | 41.765%
C=C(C)[C@@H]1CCC(C)=C[C@H]1c1c(O)cc(CCCCC)cc1O [F, Cannabidiol isolate (CBD)] | 9.134%
CCCCCCCCCCCCCCC[C@@H](O)[C@@H](N)CO [G, Sphinganine] | -5.78%
